From patent US11028090B2 (Dong Wha Pharm. Co., Ltd., priority 2017, dated 2021) come the findings set out here.

By IC50 is commonly meant the point on the concentration scale where inhibition reaches its midpoint.

Assay [1] deals with BRD4 (BD1+BD2) bromodomain (Homo sapiens (Human), UniProt O60885). Kind of assay: BRD4 binding inhibition (AlphaScreen, GST-BRD4 vs tetraacetylated histone H4 peptide). The procedure, abridged: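 AlphaScreen read after 30 min dark incubation at room temperature with glutathione acceptor/streptavidin donor beads (10 μg/ml each). The beads were added to compound plus 100 nM biotin-H4 (K5,8,12,16-acetyl) peptide and 100 nM GST-BRD4 BD1+BD2 in pH 7.4 HEPES/Tween/BSA/DTT buffer.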
(In general: In Alpha technology, singlet oxygen from a donor bead excites a nearby acceptor bead.)

For assay [2], the system named is acute myelogenous leukemia cells (MV-4-11 cells). Kind of assay: Cytotoxicity to acute myelogenous leukemia cells (MV-4-11 cells), CCK-8. The settings on record: Homo sapiens, MV4-11, 72 h.
The mark [3] stands for this setting: GST-BRD4 (BD1+BD2) vs biotinylated acetyl-histone H4 peptide, AlphaScreen, read-out: BRD4 IC50.
Where [4] appears, read: read-out: MV-4-11 Cytotoxicity IC50.
The mark [5] stands for this setting: GST-BRD4 (BD1+BD2) / biotinylated acetyl-histone H4 (Lys5,8,12,16) peptide, read-out: IC50, BRD4 binding inhibition.
The mark [6] stands for this setting: read-out: IC50, cytotoxicity against acute myelogenous leukemia cells.

Read-outs that look alike come from different tables or passages of the source.

`Cc1nnc2c(NCCCCNC(=O)C(C)(C)C)nc3cc(OCCN4CCOCC4)ccc3n12` [Example 433, 2,2-dimethyl-N-{4-[1-methyl-7-(2-morpholine-4-yl-ethoxy)-[1,2,4]triazolo[4,3-a]quinoxaline-4-ylamino]-butyl}-propionamide]: the IC50 in assay [1] (setting [3]) was found to be 61 nM; in assay [2] (setting [4]) it was 340 nM.
Turning to `Cc1nnc2c(NCCCCNC(=O)[C@@H](O)C(C)C)nc3cc(OCCN4CCOCC4)ccc3n12` [Example 435, 2-(S)-hydroxy-N-{4-[7-(2-morpholine-4-yl-ethoxy)-1-methyl-[1,2,4]triazolo[4,3-a]quinoxaline-4-ylamino]-butyl}-3-methyl-butyramide], the 50% inhibitory concentration (IC50) in assay [1] (setting [5]) was at most 10 nM; in assay [1] (setting [3]), 8 nM; in assay [2] (setting [4]) it was 110 nM.
In the case of `Cc1nnc2c(NCCCCNC(=O)OC(C)C)nc3cc(OCCN4CCOCC4)ccc3n12` [Example 436, {4-[1-methyl-7-(2-morpholine-4-yl-ethoxy)-[1,2,4]triazolo[4,3-a]quinoxaline-4-ylamino]-butyl}-carbamic acid isopropylester], the IC50 is at most 50 nM in assay [1] (setting [5]), 18 nM in assay [1] (setting [3]), at most 200 nM in assay [2] (setting [6]) and 160 nM in assay [2] (setting [4]).
Turning to `Cc1nnc2c(NCCCCNC(=O)OC3CCCC3)nc3cc(OCCN4CCOCC4)ccc3n12` [Example 437, {4-[1-methyl-7-(2-morpholine-4-yl-ethoxy)-[1,2,4]triazolo[4,3-a]quinoxaline-4-ylamino]-butyl}-carbamic acid cyclopentylester], the half-maximal inhibitory concentration (IC50) in assay [1] (setting [5]) was at most 50 nM; in assay [1] (setting [3]) it was 31 nM; in assay [2] (setting [6]) it was at most 200 nM; in assay [2] (setting [4]), 70 nM.
On the same counts, the results for `Cc1nnc2c(NCCCCNC(=O)Cc3cccs3)nc3cc(OCCN4CCOCC4)ccc3n12` [Example 438, N-{4-[1-methyl-7-(2-morpholine-4-yl-ethoxy)-[1,2,4]triazolo[4,3-a]quinoxaline-4-ylamino]-butyl}-2-thiophene-2-yl-acetamide] are at most 50 nM, 37 nM, at most 200 nM and 33 nM.
In the case of `Cc1nnc2c(NCCCCNC(=O)c3ccccc3Cl)nc3cc(OCCN4CCOCC4)ccc3n12` [Example 439, 2-chloro-N-{4-[1-methyl-7-(2-morpholine-4-yl-ethoxy)-[1,2,4]triazolo[4,3-a]quinoxaline-4-ylamino]-butyl}-benzamide], the IC50 was at most 50 nM in assay [1] (setting [5]), 38 nM in assay [1] (setting [3]), at most 200 nM in assay [2] (setting [6]) and 100 nM in assay [2] (setting [4]).
On to `CCOc1ccc2c(c1)nc(NCCCCNC(=O)OC(C)(C)C)c1nnc(C)n12` [Example 440, [4-(7-ethoxy-1-methyl-[1,2,4]triazolo[4,3-a]quinoxaline-4-ylamino)-butyl]-carbamic acid-tert-butylester], for which the IC50 in assay [1] (setting [5]) is at most 10 nM; in assay [1] (setting [3]) it was 9 nM; in assay [2] (setting [4]) it was 580 nM.
On to `CCOc1ccc2c(c1)nc(NCCCCNC(=O)CC(C)C)c1nnc(C)n12` [Example 442, N-[4-(7-ethoxy-1-methyl-[1,2,4]triazolo[4,3-a]quinoxaline-4-ylamino)-butyl]-3-methyl-butyramide], for which the half-maximal inhibitory concentration (IC50) in assay [1] (setting [5]) was at most 50 nM; in assay [1] (setting [3]) it was 16 nM; in assay [2] (setting [6]), at most 200 nM; in assay [2] (setting [4]) it was 110 nM.
As for `CCOc1ccc2c(c1)nc(NCCCCNC(=O)OC(C)C)c1nnc(C)n12` [Example 443, [4-(7-ethoxy-1-methyl-[1,2,4]triazolo[4,3-a]quinoxaline-4-ylamino)-butyl]-carbamic acid isopropylester], the IC50 is at most 50 nM in assay [1] (setting [5]), 13 nM in assay [1] (setting [3]), at most 200 nM in assay [2] (setting [6]) and 120 nM in assay [2] (setting [4]).
For the molecule `CCOc1ccc2c(c1)nc(NCCCCNC(=O)OCC(C)C)c1nnc(C)n12` [Example 444, [4-(7-ethoxy-1-methyl-[1,2,4]triazolo[4,3-a]quinoxaline-4-ylamino)-butyl]-carbamic acid isobutylester], the 50% inhibitory concentration (IC50) in assay [1] (setting [5]) was at most 10 nM; in assay [1] (setting [3]), 10 nM; in assay [2] (setting [6]), at most 200 nM; in assay [2] (setting [4]), 120 nM.
Regarding `CCOc1ccc2c(c1)nc(NCCCCNC(=O)OC1CCCC1)c1nnc(C)n12` [Example 445, [4-(7-ethoxy-1-methyl-[1,2,4]triazolo[4,3-a]quinoxaline-4-ylamino)-butyl]-carbamic acid cyclopentylester], the IC50 was at most 50 nM in assay [1] (setting [5]), 13 nM in assay [1] (setting [3]), at most 200 nM in assay [2] (setting [6]) and 100 nM in assay [2] (setting [4]).
On the same counts, the results for `CCOc1ccc2c(c1)nc(NCCCCNC(=O)Cc1cccs1)c1nnc(C)n12` [Example 446, N-[4-(7-ethoxy-1-methyl-[1,2,4]triazolo[4,3-a]quinoxaline-4-ylamino)-butyl]-2-thiophene-2-yl-acetamide] are at most 50 nM, 12 nM, at most 200 nM and 10 nM.
On to `Cc1nnc2c(NCCCCNC(=O)CC(C)C)nc3cc(OC(C)C)ccc3n12` [Example 449, N-[-(7-isopropoxy-1-methyl-[1,2,4]triazolo[4,3-a]quinoxaline-4-ylamino)-butyl]-3-methyl-butyramide], for which the figures for the IC50 in assay [1] (setting [5]), in assay [1] (setting [3]) and in assay [2] (setting [4]) were at most 50 nM, 27 nM and 300 nM, respectively.
On to `CCC(C)C(=O)NCCCCNc1nc2cc(OC(C)C)ccc2n2c(C)nnc12` (stereo not drawn) [Example 450, N-[4-(7-isopropoxy-1-methyl-[1,2,4]triazolo[4,3-a]quinoxaline-4-ylamino)-butyl]-2-methyl-butyramide], for which the half-maximal inhibitory concentration (IC50) in assay [1] (setting [5]) is at most 50 nM; in assay [1] (setting [3]), 19 nM; in assay [2] (setting [4]), 270 nM.
As to `Cc1nnc2c(NCCCCNC(=O)Cc3cccs3)nc3cc(OC(C)C)ccc3n12` [Example 451, N-[4-(7-isopropoxy-1-methyl-[1,2,4]triazolo[4,3-a]quinoxaline-4-ylamino)-butyl]-2-thiophene-2-yl-acetamide], the IC50 in assay [1] (setting [5]) is at most 50 nM; in assay [1] (setting [3]) it was 13 nM; in assay [2] (setting [6]), at most 200 nM; in assay [2] (setting [4]) it was 24 nM.
Consider `Cc1nnc2c(NCCCCNC(=O)OC3CCCC3)nc3cc(OC(C)C)ccc3n12` [Example 453, [4-(7-isopropoxy-1-methyl-[1,2,4]triazolo[4,3-a]quinoxaline-4-ylamino)-butyl]-carbamic acid cyclopentyl ester], for which the IC50 in assay [1] (setting [5]) was at most 50 nM; in assay [1] (setting [3]) it was 24 nM; in assay [2] (setting [4]), 500 nM.
Take `Cc1nnc2c(NCCCCNC(=O)c3ccccc3Cl)nc3cc(OC(C)C)ccc3n12` [Example 454, 2-chloro-N-[4-(7-isopropoxy-1-methyl-[1,2,4]triazolo[4,3-a]quinoxaline-4-ylamino)-butyl]-benzamide]: the IC50 in assay [1] (setting [5]) was at most 50 nM; in assay [1] (setting [3]), 11 nM; in assay [2] (setting [6]) it was at most 200 nM; in assay [2] (setting [4]), 80 nM.
With `COc1cc(C)c2c(c1)nc(NCCCCNC(=O)CC(C)C)c1nnc(C)n12` [Example 458, [4-(7-methoxy-1,9-dimethyl-[1,2,4]triazolo[4,3-a]quinoxaline-4-ylamino)-butyl]-3-methyl-butyramide], the half-maximal inhibitory concentration (IC50) is at most 10 nM in assay [1] (setting [5]) and 530 nM in assay [2] (setting [4]).
